The results in this text go back to US20070243238A1, “Treating mouth sores with patches adhered to teeth” (priority 2006, published 2007).

This test has as its system mouth sores. Briefly: Experimentation with amoxicillin on conventional patches for mouth sores. It is filed as in vivo, human. The settings on record: amoxicillin powder for oral suspension massaged into conventional patch and dried. An excerpt: Because use of antibiotics, antibacterials, and other pharmaceutical antimicrobials causes adverse side effects, experimentation with these medications has been limited. […] Conventional amoxicillin powder for preparation of oral suspension was used, which includes sugars and other excipients. The sugars act as a binder to the oral patch. The oral suspension is massaged into the patch and dried. Preferably, the amoxicillin powder is mixed into a stronger than normal liquid before being added to the patch.

Take `CC1(C)S[C@@H]2[C@H](NC(=O)[C@H](N)c3ccc(O)cc3)C(=O)N2[C@H]1C(=O)O` [amoxicillin]: the “effect of medication on patch in treating mouth sores” value is given as “works quite well”.
